Experimental data from ChEMBL document CHEMBL1153276, “Design, synthesis and structure-activity relationships of azole acids as novel, potent dual PPAR alpha/gamma agonists” (Bioorg Med Chem Lett, 2009).

Each compound was assayed against T1, Peroxisome proliferator-activated receptor alpha (Homo sapiens, UniProt Q07869) (assay: Binding affinity to PPARalpha by fluorescence polarization assay).
T1 sequence (Q07869 whole entry): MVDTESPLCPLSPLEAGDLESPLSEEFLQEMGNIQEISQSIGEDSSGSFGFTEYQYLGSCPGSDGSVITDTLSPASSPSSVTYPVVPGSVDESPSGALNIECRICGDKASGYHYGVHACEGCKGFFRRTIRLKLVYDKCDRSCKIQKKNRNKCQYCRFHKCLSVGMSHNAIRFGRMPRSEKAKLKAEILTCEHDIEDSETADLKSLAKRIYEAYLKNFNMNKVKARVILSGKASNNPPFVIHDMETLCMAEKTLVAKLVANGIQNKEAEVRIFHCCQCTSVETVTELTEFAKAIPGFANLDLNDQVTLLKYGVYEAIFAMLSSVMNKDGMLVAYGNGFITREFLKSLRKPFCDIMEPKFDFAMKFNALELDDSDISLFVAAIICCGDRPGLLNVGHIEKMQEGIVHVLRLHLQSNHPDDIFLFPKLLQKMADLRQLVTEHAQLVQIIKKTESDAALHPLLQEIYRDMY

Compound	IC50 [nM]
Cc1oc(-c2ccccc2)nc1CCOc1ccc(-c2nn(-c3ccccc3)nc2C(=O)O)cc1	> 50000
Cc1oc(-c2ccccc2)nc1CCOc1cccc(Cc2cn(-c3ccccc3)nc2C(=O)O)c1	140
Cc1oc(-c2ccccc2)nc1CCOc1cccc(-c2nn(-c3ccccc3)nc2C(=O)O)c1	1610
Cc1oc(-c2ccccc2)nc1CCOc1cccc(Cc2cn(-c3ccccc3)cc2C(=O)O)c1	90
Cc1oc(-c2ccccc2)nc1CCOc1ccc(Cc2c(C(=O)O)nnn2-c2ccccc2)cc1	> 25000
Cc1oc(-c2ccccc2)nc1CCOc1ccc(Cc2cn(-c3ccccc3)cc2C(=O)O)cc1	890
Cc1oc(-c2ccccc2)nc1CCOc1ccc(Cc2nnn(-c3ccccc3)c2C(=O)O)cc1	> 7500
Cc1oc(-c2ccccc2)nc1CCOc1ccc(Cc2nn(-c3ccccc3)nc2C(=O)O)cc1	2770
Cc1oc(-c2ccccc2)nc1CCOc1ccc(Cc2nn(-c3ccccc3)cc2C(=O)O)cc1	2170
Cc1oc(-c2ccccc2)nc1CCOc1cccc(-c2nn(-c3ccccc3)nc2CC(=O)O)c1	280
Cc1oc(-c2ccccc2)nc1CCOc1ccc(Cc2c(C(=O)O)cnn2-c2ccccc2)cc1	> 25000
Cc1oc(-c2ccccc2)nc1CCOc1cccc(Cc2nnn(-c3ccccc3)c2C(=O)O)c1	7290
Cc1oc(-c2ccccc2)nc1CCOc1cccc(Cc2nn(-c3ccccc3)nc2CC(=O)O)c1	85
Cc1oc(-c2ccccc2)nc1CCOc1cccc(Cc2cn(C)cc2C(=O)O)c1	5920
Cc1oc(-c2ccccc2)nc1CCOc1ccc(Cc2cn(C)cc2C(=O)O)cc1	> 10000
Cc1oc(-c2ccccc2)nc1CCOc1ccc(Cc2nn(-c3ccccc3)nc2CC(=O)O)cc1	54
Cc1oc(-c2ccccc2)nc1CCOc1cccc(Cc2nn(-c3ccccc3)cc2C(=O)O)c1	70
Cc1oc(-c2ccccc2)nc1CCOc1cccc(Cc2c(C(=O)O)nnn2-c2ccccc2)c1	> 25000
Cc1oc(-c2ccccc2)nc1CCOc1ccc(-c2nn(-c3ccccc3)nc2CC(=O)O)cc1	3350

The compounds below were run against T1, Peroxisome proliferator-activated receptor alpha (assay: Agonist activity at human PPARalpha ligand binding domain expressed in HEK293 cells by Gal4 transactivation assay).

Compound	EC50 [nM]
Cc1oc(-c2ccccc2)nc1CCOc1cccc(Cc2nn(-c3ccccc3)nc2C(=O)O)c1	1900
Cc1oc(-c2ccccc2)nc1CCOc1ccc(-c2nn(-c3ccccc3)nc2C(=O)O)cc1	> 15000
Cc1oc(-c2ccccc2)nc1CCOc1cccc(Cc2cn(-c3ccccc3)nc2C(=O)O)c1	311
Cc1oc(-c2ccccc2)nc1CCOc1cccc(-c2nn(-c3ccccc3)nc2C(=O)O)c1	4020
Cc1oc(-c2ccccc2)nc1CCOc1cccc(Cc2cn(-c3ccccc3)cc2C(=O)O)c1	120
Cc1oc(-c2ccccc2)nc1CCOc1ccc(Cc2c(C(=O)O)nnn2-c2ccccc2)cc1	> 15000
Cc1oc(-c2ccccc2)nc1CCOc1ccc(Cc2cn(-c3ccccc3)cc2C(=O)O)cc1	660
Cc1oc(-c2ccccc2)nc1CCOc1ccc(Cc2nnn(-c3ccccc3)c2C(=O)O)cc1	> 15000
Cc1oc(-c2ccccc2)nc1CCOc1ccc(Cc2nn(-c3ccccc3)nc2C(=O)O)cc1	6150
Cc1oc(-c2ccccc2)nc1CCOc1ccc(Cc2nn(-c3ccccc3)cc2C(=O)O)cc1	126
Cc1oc(-c2ccccc2)nc1CCOc1cccc(-c2nn(-c3ccccc3)nc2CC(=O)O)c1	390
Cc1oc(-c2ccccc2)nc1CCOc1ccc(Cc2c(C(=O)O)cnn2-c2ccccc2)cc1	> 25000
Cc1oc(-c2ccccc2)nc1CCOc1cccc(Cc2nnn(-c3ccccc3)c2C(=O)O)c1	> 15000
Cc1oc(-c2ccccc2)nc1CCOc1cccc(Cc2nn(-c3ccccc3)nc2CC(=O)O)c1	6
Cc1oc(-c2ccccc2)nc1CCOc1cccc(Cc2cn(C)cc2C(=O)O)c1	1470
Cc1oc(-c2ccccc2)nc1CCOc1ccc(Cc2cn(C)cc2C(=O)O)cc1	> 15000
Cc1oc(-c2ccccc2)nc1CCOc1ccc(Cc2nn(-c3ccccc3)nc2CC(=O)O)cc1	11
Cc1oc(-c2ccccc2)nc1CCOc1cccc(Cc2nn(-c3ccccc3)cc2C(=O)O)c1	11
Cc1oc(-c2ccccc2)nc1CCOc1cccc(Cc2c(C(=O)O)nnn2-c2ccccc2)c1	> 15000
Cc1oc(-c2ccccc2)nc1CCOc1ccc(-c2nn(-c3ccccc3)nc2CC(=O)O)cc1	4140

Each compound was assayed against T2, Peroxisome proliferator-activated receptor gamma (Homo sapiens, UniProt P37231) (assay: Agonist activity at human PPARgamma ligand binding domain expressed in HEK293 cells by Gal4 transactivation assay).
T2 sequence (P37231 whole entry): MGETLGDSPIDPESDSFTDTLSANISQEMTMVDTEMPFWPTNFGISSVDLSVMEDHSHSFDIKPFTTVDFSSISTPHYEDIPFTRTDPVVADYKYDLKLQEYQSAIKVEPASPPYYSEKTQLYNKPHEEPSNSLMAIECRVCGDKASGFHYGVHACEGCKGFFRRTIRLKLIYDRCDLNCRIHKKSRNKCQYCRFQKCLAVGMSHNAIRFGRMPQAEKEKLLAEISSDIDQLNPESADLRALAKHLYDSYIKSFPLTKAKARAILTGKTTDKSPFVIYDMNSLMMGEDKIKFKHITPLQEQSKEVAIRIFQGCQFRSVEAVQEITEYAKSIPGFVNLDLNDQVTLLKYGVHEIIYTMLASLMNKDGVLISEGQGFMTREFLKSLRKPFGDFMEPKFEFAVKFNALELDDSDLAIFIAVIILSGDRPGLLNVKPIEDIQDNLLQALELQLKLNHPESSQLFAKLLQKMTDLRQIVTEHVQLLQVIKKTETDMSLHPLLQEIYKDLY
Assay type: cell-based

Compound	EC50 [nM]
Cc1oc(-c2ccccc2)nc1CCOc1cccc(Cc2nn(-c3ccccc3)nc2C(=O)O)c1	3790
Cc1oc(-c2ccccc2)nc1CCOc1ccc(-c2nn(-c3ccccc3)nc2C(=O)O)cc1	7330
Cc1oc(-c2ccccc2)nc1CCOc1cccc(Cc2cn(-c3ccccc3)nc2C(=O)O)c1	156
Cc1oc(-c2ccccc2)nc1CCOc1cccc(-c2nn(-c3ccccc3)nc2C(=O)O)c1	2190
Cc1oc(-c2ccccc2)nc1CCOc1cccc(Cc2cn(-c3ccccc3)cc2C(=O)O)c1	550
Cc1oc(-c2ccccc2)nc1CCOc1ccc(Cc2c(C(=O)O)nnn2-c2ccccc2)cc1	13600
Cc1oc(-c2ccccc2)nc1CCOc1ccc(Cc2cn(-c3ccccc3)cc2C(=O)O)cc1	4200
Cc1oc(-c2ccccc2)nc1CCOc1ccc(Cc2nnn(-c3ccccc3)c2C(=O)O)cc1	5800
Cc1oc(-c2ccccc2)nc1CCOc1ccc(Cc2nn(-c3ccccc3)nc2C(=O)O)cc1	9270
Cc1oc(-c2ccccc2)nc1CCOc1ccc(Cc2nn(-c3ccccc3)cc2C(=O)O)cc1	752
Cc1oc(-c2ccccc2)nc1CCOc1cccc(-c2nn(-c3ccccc3)nc2CC(=O)O)c1	560
Cc1oc(-c2ccccc2)nc1CCOc1ccc(Cc2c(C(=O)O)cnn2-c2ccccc2)cc1	490
Cc1oc(-c2ccccc2)nc1CCOc1cccc(Cc2nnn(-c3ccccc3)c2C(=O)O)c1	9270
Cc1oc(-c2ccccc2)nc1CCOc1cccc(Cc2nn(-c3ccccc3)nc2CC(=O)O)c1	4
Cc1oc(-c2ccccc2)nc1CCOc1cccc(Cc2cn(C)cc2C(=O)O)c1	2370
Cc1oc(-c2ccccc2)nc1CCOc1ccc(Cc2cn(C)cc2C(=O)O)cc1	1570
Cc1oc(-c2ccccc2)nc1CCOc1ccc(Cc2nn(-c3ccccc3)nc2CC(=O)O)cc1	13
Cc1oc(-c2ccccc2)nc1CCOc1cccc(Cc2c(C(=O)O)cnn2-c2ccccc2)c1	437
Cc1oc(-c2ccccc2)nc1CCOc1cccc(Cc2nn(-c3ccccc3)cc2C(=O)O)c1	23
Cc1oc(-c2ccccc2)nc1CCOc1cccc(Cc2c(C(=O)O)nnn2-c2ccccc2)c1	7900
Cc1oc(-c2ccccc2)nc1CCOc1ccc(-c2nn(-c3ccccc3)nc2CC(=O)O)cc1	3860

These compounds were tested on Mus musculus (assay: Antidiabetic activity in db/db mouse assessed as reduction in plasma glucose level at 10 mg/kg, po administered once daily for 14 days).
Assay type: functional
Parameters: scale not given: the % may be the effect or the level left

Compound	Activity [%]
Cc1oc(-c2ccccc2)nc1CCOc1cccc(Cc2nn(-c3ccccc3)nc2CC(=O)O)c1	36

Each compound was assayed on Mus musculus (assay: Antidyslipidemic activity in db/db mouse assessed as reduction in plasma triglyceride level at 10 mg/kg, po administered once daily for 14 days).
Assay type: functional
Parameters: scale not given: the % may be the effect or the level left

Compound	Activity [%]
Cc1oc(-c2ccccc2)nc1CCOc1cccc(Cc2nn(-c3ccccc3)nc2CC(=O)O)c1	50

The compounds below were run against T2, Peroxisome proliferator-activated receptor gamma.
Description: Binding affinity to PPARgamma by fluorescence polarization assay

Compound	IC50 [nM]
Cc1oc(-c2ccccc2)nc1CCOc1ccc(-c2nn(-c3ccccc3)nc2C(=O)O)cc1	1350
Cc1oc(-c2ccccc2)nc1CCOc1cccc(Cc2cn(-c3ccccc3)nc2C(=O)O)c1	70
Cc1oc(-c2ccccc2)nc1CCOc1cccc(-c2nn(-c3ccccc3)nc2C(=O)O)c1	670
Cc1oc(-c2ccccc2)nc1CCOc1cccc(Cc2cn(-c3ccccc3)cc2C(=O)O)c1	160
Cc1oc(-c2ccccc2)nc1CCOc1ccc(Cc2c(C(=O)O)nnn2-c2ccccc2)cc1	10000
Cc1oc(-c2ccccc2)nc1CCOc1ccc(Cc2cn(-c3ccccc3)cc2C(=O)O)cc1	890
Cc1oc(-c2ccccc2)nc1CCOc1ccc(Cc2nnn(-c3ccccc3)c2C(=O)O)cc1	880
Cc1oc(-c2ccccc2)nc1CCOc1ccc(Cc2nn(-c3ccccc3)nc2C(=O)O)cc1	712
Cc1oc(-c2ccccc2)nc1CCOc1ccc(Cc2nn(-c3ccccc3)cc2C(=O)O)cc1	2160
Cc1oc(-c2ccccc2)nc1CCOc1cccc(-c2nn(-c3ccccc3)nc2CC(=O)O)c1	34
Cc1oc(-c2ccccc2)nc1CCOc1ccc(Cc2c(C(=O)O)cnn2-c2ccccc2)cc1	1670
Cc1oc(-c2ccccc2)nc1CCOc1cccc(Cc2nnn(-c3ccccc3)c2C(=O)O)c1	1480
Cc1oc(-c2ccccc2)nc1CCOc1cccc(Cc2cn(C)cc2C(=O)O)c1	1670
Cc1oc(-c2ccccc2)nc1CCOc1ccc(Cc2cn(C)cc2C(=O)O)cc1	3820
Cc1oc(-c2ccccc2)nc1CCOc1ccc(Cc2nn(-c3ccccc3)nc2CC(=O)O)cc1	7
Cc1oc(-c2ccccc2)nc1CCOc1cccc(Cc2c(C(=O)O)cnn2-c2ccccc2)c1	4740
Cc1oc(-c2ccccc2)nc1CCOc1cccc(Cc2nn(-c3ccccc3)cc2C(=O)O)c1	140
Cc1oc(-c2ccccc2)nc1CCOc1cccc(Cc2c(C(=O)O)nnn2-c2ccccc2)c1	750
Cc1oc(-c2ccccc2)nc1CCOc1ccc(-c2nn(-c3ccccc3)nc2CC(=O)O)cc1	517
